Measurements from patent publication US12673944B2, “Compounds having inhibitory activity against glucosylceramide synthase or pharmaceutically acceptable salt thereof, processes for preparing the same, and pharmaceutical compositions comprising the same” (YUHAN CORPORATION, priority 2019, dated 2026).

Experiments:
[1] = tested on: GM1 production in Jurkat cells; experiment: cells; format: cell-based; settings: Homo sapiens, Jurkat, 72 h
[2] = target: T1, glucosylceramide synthase (GCS) (Homo sapiens, UniProt Q16739); experiment: GCS enzyme inhibition assay (A549 cell lysate, NBD C6-ceramide, HPLC fluorescence); format: biochemical; settings: inhibitory activity against GCS, 37° C., 90 minutes
T1 construct: The obtained supernatant was used; host or cells: A549 cells (lysate supernatant after sonication)
T1 sequence (Q16739 1-394): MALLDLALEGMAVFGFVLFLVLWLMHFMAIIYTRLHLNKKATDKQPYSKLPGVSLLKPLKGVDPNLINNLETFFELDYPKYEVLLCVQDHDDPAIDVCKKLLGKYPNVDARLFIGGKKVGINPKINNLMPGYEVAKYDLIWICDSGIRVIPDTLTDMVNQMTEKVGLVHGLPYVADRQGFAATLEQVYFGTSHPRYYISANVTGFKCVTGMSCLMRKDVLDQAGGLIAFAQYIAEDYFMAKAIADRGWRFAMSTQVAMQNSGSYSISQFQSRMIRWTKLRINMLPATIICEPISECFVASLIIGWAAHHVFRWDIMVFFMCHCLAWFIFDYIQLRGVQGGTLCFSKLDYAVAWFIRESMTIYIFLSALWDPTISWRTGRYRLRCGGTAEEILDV
How it was run: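 Percent GCS activity was derived from the GlcCer share of Cer plus GlcCer areas, scaled from ibiglustat (0%) to DMSO (100%). Enzyme came from sonicated A549 lysate in 50 mM HEPES pH 7.3; 90 min incubation at 37° C, chloroform/methanol stop and extraction.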

Row | SMILES | IC50 [1] [nM] | IC50 [2] [nM]
1 | CC1(C)COc2cc(-c3ccc(CC#N)cc3)ccc2C1NC(=O)O[C@@H]1CN2CCC1CC2 (stereo partly drawn) [Example 280, (S)-quinuclidin-3-yl (7-(4-(cyanomethyl)phenyl)-3,3-dimethylchroman-4-yl)carbamate] | 9.3 | 0.62
2 | CC1(C)COc2cc(-c3cccc(CC#N)c3)ccc2C1NC(=O)O[C@@H]1CN2CCC1CC2 (stereo partly drawn) [Example 281, (S)-quinuclidin-3-yl (7-(3-(cyanomethyl)phenyl)-3,3-dimethylchroman-4-yl)carbamate] | 6.9 | 0.65
3 | CC1(C)COc2cc(/C=C/c3ccc(-c4ccccc4)cc3)ccc2C1NC(=O)O[C@@H]1CN2CCC1CC2 (stereo partly drawn) [Example 282, (S)-quinuclidin-3-yl (7-((E)-2-([1,1′-diphenyl]-4-yl)vinyl)-3,3-dimethylchroman-4-yl)carbamate] | 2 | 1.64
4 | CC1(C)COc2cc(-c3cnc(C4CC4)nc3)ccc2C1NC(=O)O[C@@H]1CN2CCC1CC2 (stereo partly drawn) [Example 283, (S)-quinuclidin-3-yl (7-(2-cyclopropylpyrimidin-5-yl)-3,3-dimethylchroman-4-yl)carbamate] | 25.6 | 2.2
5 | CC1(C)COc2cc(/C=C/c3ccc(C(F)(F)F)cc3)ccc2C1NC(=O)O[C@@H]1CN2CCC1CC2 (stereo partly drawn) [Example 284, (S)-quinuclidin-3-yl (3,3-dimethyl-7-((E)-4-(trifluoromethyl)styryl)chroman-4-yl)carbamate] | 0.5 | 0.91
6 | Cc1cc(C)c(Cl)c(-c2ccc3c(c2)OCC(C)(C)C3NC(=O)O[C@@H]2CN3CCC2CC3)c1 (stereo partly drawn) [Example 285, (S)-quinuclidin-3-yl (7-(2-chloro-3,5-dimethylphenyl)-3,3-dimethylchroman-4-yl)carbamate] | 9.7 | 1.96
7 | CC1(C)COc2cc(/C=C/c3ccc(F)cc3F)ccc2C1NC(=O)O[C@@H]1CN2CCC1CC2 (stereo partly drawn) [Example 286, (S)-quinuclidin-3-yl (7-((E)-2,4-difluorostyryl)-3,3-dimethylchroman-4-yl)carbamate] | 3.3 | 0.93
8 | CCc1ccc(/C=C/c2ccc3c(c2)OCC(C)(C)C3NC(=O)O[C@@H]2CN3CCC2CC3)cc1 (stereo partly drawn) [Example 287, (S)-quinuclidin-3-yl (7-((E)-4-ethylstyryl)-3,3-dimethylchroman-4-yl)carbamate] | 1 | 0.79
9 | CCOc1ccc2cc(-c3ccc4c(c3)OCC(C)(C)C4NC(=O)O[C@@H]3CN4CCC3CC4)ccc2c1 (stereo partly drawn) [Example 288, (S)-quinuclidin-3-yl (7-(6-ethoxynaphthalen-2-yl)-3,3-dimethylchroman-4-yl)carbamate] | 0.7 | 1.11
10 | CC1(C)COc2cc(/C=C/c3cccc(F)c3)ccc2C1NC(=O)O[C@@H]1CN2CCC1CC2 (stereo partly drawn) [Example 289, (S)-quinuclidin-3-yl (7-((E)-3-fluorostyryl)-3,3-dimethylchroman-4-yl)carbamate] | 1.4 | 0.61
11 | CC1(C)COc2cc(-c3cccc4c3oc3ccccc34)ccc2C1NC(=O)O[C@@H]1CN2CCC1CC2 (stereo partly drawn) [Example 290, (S)-quinuclidin-3-yl (7-(dibenzo[b,d]furan-4-yl)-3,3-dimethylchroman-4-yl)carbamate] | 0.9 | 1.54
12 | CC1(C)COc2cc(-c3ccc(C#N)c(F)c3)ccc2C1NC(=O)O[C@@H]1CN2CCC1CC2 (stereo partly drawn) [Example 291, (S)-quinuclidin-3-yl (7-(4-cyano-3-fluorophenyl)-3,3-dimethylchroman-4-yl)carbamate] | 8.9 | 1.03
13 | CC1(C)COc2cc(-c3ccc(=O)n(Cc4ccccc4)c3)ccc2C1NC(=O)O[C@@H]1CN2CCC1CC2 (stereo partly drawn) [Example 292, (S)-quinuclidin-3-yl (7-(1-benzyl-6-oxo-1,6-dihydropyridin-3-yl)-3,3-dimethylchroman-4-yl)carbamate] | 30.2 | 1.38
14 | CC1(C)COc2cc(/C=C/c3ccc(F)cc3)ccc2C1NC(=O)O[C@@H]1CN2CCC1CC2 (stereo partly drawn) [Example 293, (S)-quinuclidin-3-yl (7-((E)-4-fluorostyryl)-3,3-dimethylchroman-4-yl)carbamate] | 3 | 1.23
15 | CC1(C)CC(NC(=O)O[C@@H]2CN3CCC2CC3)c2ccc(-c3cccc(C(F)(F)F)c3)cc2O1 (stereo partly drawn) [Example 295, (S)-quinuclidin-3-yl (2,2-dimethyl-7-(3-(trifluoromethyl)phenyl)chroman-4-yl)carbamate] | 11.2 | 18.1
16 | CC1(C)CC(NC(=O)O[C@@H]2CN3CCC2CC3)c2ccc(-c3cccc(OC(F)(F)F)c3)cc2O1 (stereo partly drawn) [Example 296, (S)-quinuclidin-3-yl (2,2-dimethyl-7-(3-(trifluoromethoxy)phenyl)chroman-4-yl)carbamate] | 1.26 | 11.4

Row | SMILES | IC50 [1] [nM] | IC50 [2] [nM]
17 | CC1(NC(=O)O[C@@H]2CN3CCC2CC3)CCOc2cc(-c3cccc(Cl)c3)ccc21 (stereo partly drawn) [Example 297, (S)-quinuclidin-3-yl (7-(3-chlorophenyl)-4-methylchroman-4-yl)carbamate] | 5.6 | 0.8
18 | CC1(NC(=O)O[C@@H]2CN3CCC2CC3)CCOc2cc(-c3cccc(F)c3)ccc21 (stereo partly drawn) [Example 298, (S)-quinuclidin-3-yl (7-(3-fluorophenyl)-4-methylchroman-4-yl)carbamate] | 5.5 | 0.7
19 | COc1cccc(-c2ccc3c(c2)OCCC3(C)NC(=O)O[C@@H]2CN3CCC2CC3)c1 (stereo partly drawn) [Example 299, (S)-quinuclidin-3-yl (7-(3-methoxyphenyl)-4-methylchroman-4-yl)carbamate] | 9.7 | 0.6
20 | CC(C)c1cccc(-c2ccc3c(c2)OCCC3(C)NC(=O)O[C@@H]2CN3CCC2CC3)c1 (stereo partly drawn) [Example 300, (S)-quinuclidin-3-yl (7-(3-isopropylphenyl)-4-methylchroman-4-yl)carbamate] | 0.9 | 0.23
21 | COc1ccc(Cl)c(-c2ccc3c(c2)OCCC3(C)NC(=O)O[C@@H]2CN3CCC2CC3)c1 (stereo partly drawn) [Example 301, (S)-quinuclidin-3-yl (7-(2-chloro-5-methoxyphenyl)-4-methylchroman-4-yl)carbamate] | 17.5 | 0.8
22 | CCOc1ccc(-c2ccc3c(c2)OCCC3(C)NC(=O)O[C@@H]2CN3CCC2CC3)cc1 (stereo partly drawn) [Example 302, (S)-quinuclidin-3-yl (7-(4-ethoxyphenyl)-4-methylchroman-4-yl)carbamate] | 2.6 | 0.8
23 | CN(C)c1cccc(-c2ccc3c(c2)OCCC3(C)NC(=O)O[C@@H]2CN3CCC2CC3)c1 (stereo partly drawn) [Example 303, (S)-quinuclidin-3-yl (7-(3-(dimethylamino)phenyl)-4-methylchroman-4-yl)carbamate] | 3.2 | 0.5
24 | CC1(NC(=O)O[C@@H]2CN3CCC2CC3)CCOc2cc(-c3coc4ccccc34)ccc21 (stereo partly drawn) [Example 304, (S)-quinuclidin-3-yl (7-(benzofuran-3-yl)-4-methylchroman-4-yl)carbamate] | 2.1 | 0.38
25 | CC1(NC(=O)O[C@@H]2CN3CCC2CC3)CCOc2cc(-c3cccc(C(F)(F)F)c3)ccc21 (stereo partly drawn) [Example 305, (S)-quinuclidin-3-yl (4-methyl-7-(3-(trifluoromethyl)phenyl)chroman-4-yl)carbamate] | 5.4 | 0.7
26 | CC1(NC(=O)O[C@@H]2CN3CCC2CC3)CCOc2cc(-c3cccc(OC(F)(F)F)c3)ccc21 (stereo partly drawn) [Example 306, (S)-quinuclidin-3-yl (4-methyl-7-(3-(trifluoromethoxy)phenyl)chroman-4-yl)carbamate] | 3 | 0.5
27 | CC1(NC(=O)O[C@@H]2CN3CCC2CC3)CCOc2cc(-c3ccc4c(c3)OC(F)(F)O4)ccc21 (stereo partly drawn) [Example 307, (S)-quinuclidin-3-yl (7-(2,2-difluorobenzo[d][1,3]dioxol-5-yl)-4-methylchroman-4-yl)carbamate] | 3.1 | 1.07
28 | CCOc1c(C)cc(-c2ccc3c(c2)OCCC3(C)NC(=O)O[C@@H]2CN3CCC2CC3)cc1C (stereo partly drawn) [Example 308, (S)-quinuclidin-3-yl (7-(4-ethoxy-3,5-dimethylphenyl)-4-methylchroman-4-yl)carbamate] | 4.1 | 1.06
29 | CC1(NC(=O)O[C@@H]2CN3CCC2CC3)CCOc2cc(-c3ccccc3C#N)ccc21 (stereo partly drawn) [Example 309, (S)-quinuclidin-3-yl (7-(2-cyanophenyl)-4-methylchroman-4-yl)carbamate] | 37.2 | 5.77
30 | CC(C)(C)c1cccc(-c2ccc3c(c2)OCCC3(C)NC(=O)O[C@@H]2CN3CCC2CC3)c1 (stereo partly drawn) [Example 310, (S)-quinuclidin-3-yl (7-(3-(tert-butyl)phenyl)-4-methylchroman-4-yl)carbamate] | 0.2 | 0.23
31 | Cc1cscc1-c1ccc2c(c1)OCCC2(C)NC(=O)O[C@@H]1CN2CCC1CC2 (stereo partly drawn) [Example 311, (S)-quinuclidin-3-yl (4-methyl-7-(4-methylthiophen-3-yl)chroman-4-yl)carbamate] | 0.7 | 0.17
32 | CC(C)(C)c1cccc(-c2ccc3c(c2)COCC3NC(=O)O[C@@H]2CN3CCC2CC3)c1 (stereo partly drawn) [Example 312, (S)-quinuclidin-3-yl (7-(3-(tert-butyl)phenyl)isochroman-4-yl)carbamate] | 28.8 | 5.62
